We go through 17 compounds from US8124634B2, “CB1 receptor modulators” (7TM Pharma A/S, priority 2006, dated 2012).

Bounds are passed on as bounds.

In the experiment the target is T1, human CB1 receptor (Homo sapiens, UniProt P21554).
T1 construct: expressed in transfected cells; membranes
T1 sequence (P21554 whole entry): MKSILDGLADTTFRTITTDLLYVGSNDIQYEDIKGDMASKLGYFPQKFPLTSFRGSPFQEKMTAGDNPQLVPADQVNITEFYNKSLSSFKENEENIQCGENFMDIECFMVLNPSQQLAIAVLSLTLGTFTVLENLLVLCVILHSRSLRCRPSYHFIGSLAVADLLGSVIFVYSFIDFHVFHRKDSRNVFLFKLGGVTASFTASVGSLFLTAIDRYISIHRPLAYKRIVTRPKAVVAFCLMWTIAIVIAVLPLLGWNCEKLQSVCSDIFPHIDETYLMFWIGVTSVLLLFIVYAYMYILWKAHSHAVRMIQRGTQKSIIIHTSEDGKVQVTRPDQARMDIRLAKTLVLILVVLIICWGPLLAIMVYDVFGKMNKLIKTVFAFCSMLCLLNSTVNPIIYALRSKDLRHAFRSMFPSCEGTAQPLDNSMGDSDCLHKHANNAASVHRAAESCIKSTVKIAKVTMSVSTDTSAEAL
The experiment is described as follows: Cannabinoid Receptor-1 functional assay: inhibition of CP55940-induced [35S]GTPγS binding to membranes of CHO-K1 cells expressing human CB1. The note with it: 3 nM CP55940, hCB1 membranes, [35S]GTPγS SPA; read-out: IC50 value for antagonizing a CB1 receptor agonist. The experiment is classed as biochemical. The text has this: Transfection and Cell Culture—The cDNA encoding the human CB1 (Cannabinoid Receptor-1) receptor (GenBank accession number NM_016083) was cloned from a human adipose tissue cDNA library and cloned into the eukaryotic expression vector pcDNA3.1 (Invitrogen).
Chinese Hamster Ovary cells (CHO-K1) stably expressing recombinant human CB1 were generated by transfecting the plasmid containing the coding sequence of the human CB1 receptor in CHO-K1 cells, using lipofectamin, according to the manufacturer instructions. Resistant clones were selected in the presence of 600 μg/ml G418 (Life technology). Stably transfected CHO-K1 cells were maintained in Ham's F-12 culture medium (Invitrogen), supplemented with 10% fetal calf serum (Invitrogen), 100 U/ml penicillin, 100 μg/ml streptomycin (Life Technology), and 600 μg/ml G418.
Cannabinoid Receptor-1 Functional Assay.
Functional activities of the above examples of compounds of the invention were assessed in vitro by measuring their ability to inhibit CP55940-induced [^35S]GTPγS binding to membranes prepared from CHO-K1 cells expressing the human CB1 receptor (described in Transfection and Cell Culture). CP55940 is a well known non-selective CB1 and CB2 receptor agonist (e.g Felder et al., 1995, Molecular Pharmacology, (48) 443-50). Membranes were prepared by a standard procedure. Briefly, cells were harvested using 10 mM EDTA and collected by centrifugation. Pelleted cells were homogenized in ice-cold 20 mM Hepes (pH 7.4),10 mM EDTA and protease inhibitors (Complete protease inhibitor cocktail tablet, Roche) using an Ultra Turrax Homogenizer. The homogenate was centrifuged at 14 000 rpm for 45 min. at 4° C. The resultant pellet was resuspended in the same buffer but with only 0.1 mM EDTA and was again centrifuged at 14 000 rpm for 45 min. at 4° C. The resulting pellet (membranes) was resuspended in 20 mM Hepes (pH 7.4), 0.1 mM EDTA, 2 mM MgCl2 and protease inhibitors and protein concentration was determined by Micro BCA Protein Assay Reagent Kit (Pierce Biotechnology) according to the manufacturer instructions. The [^35S]GYPγS SPA (Scintillation Proximity Assay) binding assay was performed by incubating 5 μg/well hCB1-membranes with 1 nM [^35S]GYPγS (Perkin Elmer—NEG 030H) in the presence of 3 nM of CP55940 and various concentrations of the test compounds at room temperature for 1 hr in 96-well microtiter plates. 0.4 mg/well SPA beads (PVT-WGA; RPNQ0001 Amersham Pharmacia Biotech) were then added and the incubation continued for further 30 min. on an orbital shaker. The assay buffer contained 50 mM HEPES (pH 7.5), 50 mM NaCl, 2.5 mM MgCl2, 0.1% BSA, 1 μM GDP and 100 μg/ml Saponin. Microtiter plates were centrifuged at 1500 rpm for 5 min. and radioactivity was read immediately using a Topcounter (PerkinElmer Life Sciences). Data were analyzed and IC50 values determined by non-linear regression using the Prism software (GraphPad Software, San Diego).
(GTPγS resists hydrolysis and so accumulates on activated G proteins.)
A word on the IC50: it is the midpoint of a concentration-inhibition curve. Take `CCC(NC(=O)c1nn(-c2ccccc2Cl)c(-c2ccc(Cl)cc2)c1Cc1nnn[nH]1)c1ccc(Br)cc1` (centres unmarked) [[2.11], 1-(2-Chloro-phenyl)-5-(4-chloro-phenyl)-4-(1H-tetrazol-5-ylmethyl)-1H-pyrazole-3-carboxylic acid [1-(4-bromo-phenyl)-propyl]-amide]: the IC50 was less than 300 nM.
Next, `C[C@@H](NC(=O)c1nn(-c2ccccc2Cl)c(-c2ccc(Cl)cc2)c1Cc1nnn[nH]1)c1cccc(C(F)(F)F)c1` [[2.12], 1-(2-Chloro-phenyl)-5-(4-chloro-phenyl)-4-(1H-tetrazol-5-ylmethyl)-1H-pyrazole-3-carboxylic acid [(R)-1-(3-trifluoromethyl-phenyl)-ethyl]-amide]: less than 300 nM.
As for `CC(NC(=O)c1nn(-c2ccccc2Cl)c(-c2ccc(Cl)cc2)c1Cc1nnn[nH]1)c1ccc(Cl)c(Cl)c1` (centres unmarked) [[2.13], 1-(2-Chloro-phenyl)-5-(4-chloro-phenyl)-4-(1H-tetrazol-5-ylmethyl)-1H-pyrazole-3-carboxylic acid [1-(3,4-dichloro-phenyl)-ethyl]-amide], the figure is less than 300 nM.
As for `C[C@H](c1ccc(C(F)(F)F)cc1)N(C)C(=O)c1nn(-c2ccccc2Cl)c(-c2ccc(Cl)cc2)c1Cc1nnn[nH]1` [[2.14], 1-(2-Chloro-phenyl)-5-(4-chloro-phenyl)-4-(1H-tetrazol-5-ylmethyl)-1H-pyrazole-3-carboxylic acid methyl-[(R)-1-(4-trifluoromethyl-phenyl)-ethyl]-amide], the IC50 was less than 300 nM.
As for `CCC(NC(=O)c1nn(-c2ccccc2Cl)c(-c2ccc(Cl)cc2)c1Cc1nnn[nH]1)c1ccc(C(F)(F)F)cc1` (centres unmarked) [[2.15], 1-(2-Chloro-phenyl)-5-(4-chloro-phenyl)-4-(1H-tetrazol-5-ylmethyl)-1H-pyrazole-3-carboxylic acid [1-(4-trifluoromethyl-phenyl)propyl]-amide], the figure is less than 300 nM; as for `CC(NC(=O)c1nn(-c2ccccc2Cl)c(-c2ccc(Cl)cc2)c1Cc1nnn[nH]1)c1ccc(F)c(F)c1` (centres unmarked) [[2.16], 1-(2-Chloro-phenyl)-5-(4-chloro-phenyl)-4-(1H-tetrazol-5-ylmethyl)-1H-pyrazole-3-carboxylic acid [1-(3,4-difluoro-phenyl)-ethyl]-amide], less than 300 nM; as for `C[C@@H](NC(=O)c1nn(-c2ccccc2Cl)c(-c2ccc(Cl)cc2)c1Cc1nnn[nH]1)c1cccc(F)c1` [[2.17], 1-(2-Chloro-phenyl)-5-(4-chloro-phenyl)-4-(1H-tetrazol-5-ylmethyl)-1H-pyrazole-3-carboxylic acid [(R)-1-(3-fluoro-phenyl)-ethyl]-amide], less than 300 nM.
Next, `CC(NC(=O)c1nn(-c2ccccc2Cl)c(-c2ccc(Cl)cc2)c1Cc1nnn[nH]1)c1cc(F)cc(F)c1` (centres unmarked) [[2.18], 1-(2-Chloro-phenyl)-5-(4-chloro-phenyl)-4-(1H-tetrazol-5-ylmethyl)-1H-pyrazole-3-carboxylic acid [1-(3,5-difluoro-phenyl)-ethyl]-amide]: less than 300 nM; `CC(NC(=O)c1nn(-c2ccccc2Cl)c(-c2ccc(Cl)cc2)c1Cc1nn[nH]n1)c1ccc(Cl)c(F)c1` (centres unmarked) [[2.19], 5-(4-Chloro-phenyl)-1-(2-chloro-phenyl)-4-(2H-tetrazol-5-ylmethyl)-1H-pyrazole-3-carboxylic acid [1-(4-chloro-3-fluoro-phenyl)-ethyl]-amide]: less than 300 nM; `CC(NC(=O)c1nn(-c2ccccc2Cl)c(-c2ccc(Cl)cc2)c1Cc1nn[nH]n1)c1ccc(Br)cc1F` (centres unmarked) [[2.20], 1-(2-Chloro-phenyl)-5-(4-chloro-phenyl)-4-(2H-tetrazol-5-ylmethyl)-1H-pyrazole-3-carboxylic acid [1-(4-bromo-2-fluoro-phenyl)-ethyl]-amide]: less than 300 nM.
On to `C[C@@H](NC(=O)c1nn(-c2ccccc2Cl)c(-c2ccc(Cl)cc2)c1Cc1nn[nH]n1)c1ccc(Cl)c(Cl)c1` [[2.22], 1-(2-Chloro-phenyl)-5-(4-chloro-phenyl)-4-(2H-tetrazol-5-ylmethyl)-1H-pyrazole-3-carboxylic acid [(R)-1-(3,4-dichloro-phenyl)-ethyl]-amide], for which the IC50 was less than 300 nM.
In the case of `C[C@@H](NC(=O)c1nn(-c2ccccc2Cl)c(-c2ccc(Cl)cc2)c1Cc1nn[nH]n1)c1ccc(Cl)c(F)c1` [[2.23], 1-(2-Chloro-phenyl)-5-(4-chloro-phenyl)-4-(2H-tetrazol-5-ylmethyl)-1H-pyrazole-3-carboxylic acid [(R)-1-(3-fluoro-4-chloro-phenyl)-ethyl]-amide], the concentration for half-maximal inhibition (IC50) was less than 300 nM.
On to `C[C@@H](NC(=O)c1nn(-c2ccccc2Cl)c(-c2ccc(Cl)cc2)c1Cc1nn[nH]n1)c1ccc(F)c(Cl)c1` [[2.24], 1-(2-Chloro-phenyl)-5-(4-chloro-phenyl)-4-(2H-tetrazol-5-ylmethyl)-1H-pyrazole-3-carboxylic acid [(R)-1-(3-chloro-4-fluoro-phenyl)-ethyl]-amide], for which the IC50 was less than 300 nM.
For `C[C@@H](NC(=O)c1nn(-c2ccccc2Cl)c(-c2ccc(Cl)cc2)c1Cc1nnn[nH]1)c1cccc(Cl)c1` [[2.25], 1-(2-Chloro-phenyl)-5-(4-chloro-phenyl)-4-(1H-tetrazol-5-ylmethyl)-1H-pyrazole-3-carboxylic acid [(R)-1-(3-chloro-phenyl)-ethyl]-amide], the IC50 is less than 300 nM.
Next, `C[C@@H](NC(=O)c1nn(-c2ccccc2Cl)c(-c2ccc(Cl)cc2)c1Cc1nn[nH]n1)c1ccc(OC(F)(F)F)cc1` [[2.26], 1-(2-Chloro-phenyl)-5-(4-chloro-phenyl)-4-(2H-tetrazol-5-ylmethyl)-1H-pyrazole-3-carboxylic acid [(R)-1-(4-trifluoromethoxyl-phenyl)-ethyl]-amide]: less than 300 nM; `C[C@H](c1ccc(OC(F)(F)F)cc1)N(C)C(=O)c1nn(-c2ccccc2Cl)c(-c2ccc(Cl)cc2)c1Cc1nnn[nH]1` [[2.27], 1-(2-Chloro-phenyl)-5-(4-chloro-phenyl)-4-(1H-tetrazol-5-ylmethyl)-1H-pyrazole-3-carboxylic acid methyl-[(R)-1-(4-trifluoromethoxy-phenyl)-ethyl]-amide]: less than 300 nM.
Take `C[C@H](c1ccc(F)c(Cl)c1)N(C)C(=O)c1nn(-c2ccccc2Cl)c(-c2ccc(Cl)cc2)c1Cc1nnn[nH]1` [[2.28], 1-(2-Chloro-phenyl)-5-(4-chloro-phenyl)-4-(1H-tetrazol-5-ylmethyl)-1H-pyrazole-3-carboxylic acid methyl-[(R)-1-(3-chloro-4-fluoro-phenyl)-ethyl]-amide]: the IC50 is less than 300 nM.
